Measured values taken from patent EP1029854A1, “Oxazolidinones and their use as antibacterial agents” (BAYER AG, priority 1999, dated 2000).
In brackets after ≈: the same amount, converted by molar mass.

System: S.aureus 133
Assay: MIC (MHK) determination by microdilution method in BH medium
Format: cell-based
Conditions: for MIC: Staphylococcus aureus, S.aureus 133, microdilution in BH-Medium, 37°C, read after ca. 20 hours or 3 to 5 days, lowest concentration with no visible growth, samples Diastereomer 1 /Diastereomer 2 = 100:1, read-out: MHK-Werte; for Wirksameres Diastereomer: qualitative comparison with Diastereomer 2 of the same example, test not named in the heading, presumably the MIC test
Protocol: Die MHK-Werte wurden mit Hilfe der Mikrodilutionsmethode in BH-Medium bestimmt. Jede Prüfsubstanz wurde in DMSO gelöst. In der Mikrotiterplatte wurde durch serielle Verdünnung eine Konzentrationsreihe der Prüfsubstanzen angelegt. Zur Inokulation wurden Übernachtkulturen der Erreger verwandt, die zuvor im Nährmedium 1:250 verdünnt wurden. Zu 100 µl der verdünnten, wirkstoffhaltigen Nährlösungen wurden je 100 µl Inokulationslösung gegeben.
Die Mikrotiterplatten wurden bei 37°C bebrütet und nach ca. 20 Stunden oder nach 3 bis 5 Tagen abgelesen. Der MHK-Wert (µg/ml) gibt die niedrigste Wirkstoffkonzentration an, bei der kein Wachstum zu erkennen war.

Q: With `C#CC(O)[C@H]1CN(c2ccc3c(c2)OCc2nccn2-3)C(=O)O1` (single isomer, unassigned) [Beispiel 2] as the compound, how does the MIC read?
A: 1 µg/mL (≈ 3.21 µM)

Q: Which “Wirksameres Diastereomer” value does the source give for `C=CC(O)[C@H]1CN(c2ccc3c(c2)OCc2nccn2-3)C(=O)O1` (single isomer, unassigned) [Beispiel 1 Diastereomer 1] here?
A: Wirksameres Diastereomer

Q: How did the MIC turn out when `C=CC(O)[C@H]1CN(c2ccc3c(c2)OCc2nccn2-3)C(=O)O1` (single isomer, unassigned) [Beispiel 1] was run?
A: 1.5 µg/mL (≈ 4.79 µM)

Q: How did the “Wirksameres Diastereomer” value turn out when `C#CC(O)[C@H]1CN(c2ccc3c(c2)OCc2nccn2-3)C(=O)O1` (single isomer, unassigned) [Beispiel 2 Diastereomer 1] was run?
A: Wirksameres Diastereomer
